Reference: patent US6822102B2, “Dihydrobenzopyrans, dihydrobenzothiopyrans, and tetrahydroquinolines for the treatment of COX-2 mediated disorders” (Pharmacia Corporation, priority 2000, dated 2004)

How the values were obtained:
COX-2 [1] = biological target: T1, COX-2 (UniProt P35354); assay: Fast assay for COX-2 activity (PGE2 ELISA, recombinant enzyme); format: biochemical, human or murine; details: column marked *; footnote not given
T1 sequence (P35354 1-604): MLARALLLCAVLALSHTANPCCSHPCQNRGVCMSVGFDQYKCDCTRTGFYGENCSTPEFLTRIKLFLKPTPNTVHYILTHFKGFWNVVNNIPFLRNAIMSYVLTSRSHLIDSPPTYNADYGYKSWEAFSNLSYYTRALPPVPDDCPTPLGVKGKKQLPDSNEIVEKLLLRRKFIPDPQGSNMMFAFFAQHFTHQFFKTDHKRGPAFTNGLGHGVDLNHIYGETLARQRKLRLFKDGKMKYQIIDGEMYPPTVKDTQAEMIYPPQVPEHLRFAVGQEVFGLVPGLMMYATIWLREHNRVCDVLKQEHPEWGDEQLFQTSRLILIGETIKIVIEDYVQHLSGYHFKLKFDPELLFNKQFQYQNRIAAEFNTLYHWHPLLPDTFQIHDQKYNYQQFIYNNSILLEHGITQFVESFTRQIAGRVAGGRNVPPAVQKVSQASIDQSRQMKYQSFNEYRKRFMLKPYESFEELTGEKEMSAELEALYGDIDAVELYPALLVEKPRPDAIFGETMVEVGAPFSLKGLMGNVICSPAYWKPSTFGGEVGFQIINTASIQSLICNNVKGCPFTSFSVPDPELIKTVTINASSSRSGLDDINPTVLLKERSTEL
Protocol: (§1) The COX-2 inhibition activity of the compounds of this invention illustrated in the Examples was determined by the following methods.
(§2) a. Preparation of recombinant COX baculoviruses
(§3) Recombinant COX-1 and COX-2 were prepared as described by Gierse et al, [J. Biochem., 305, 479-84 (1995)]. A 2.0 kb fragment containing the coding region of either human or murine COX-1 or human or murine COX-2 was cloned into a BamHI site of the baculovirus transfer vector pVL1393 (Invitrogen) to generate the baculovirus transfer vectors for COX-1 and COX-2 in a manner similar to the method of D. R. O'Reilly et al (Baculovirus Expression Vectors: A Laboratory Manual (1992)). Recombinant baculoviruses were isolated by transfecting 4 μg of baculovirus transfer vector DNA into SF9 insect cells (2×10^8) along with 200 ng of linearized baculovirus plasmid DNA by the calcium phosphate method. See M. D. Summers and G. E. Smith, A Manual of Methods for Baculovirus Vectors and Insect Cell Culture Procedures, Texas Agric. Exp. Station Bull. 1555 (1987). Recombinant viruses were purified by three rounds of plaque purification and high titer (10^7-10^8 pfu/mL) stocks of virus were prepared. For large scale production, SF9 insect cells were infected in 10 liter fermentors (0.5×10^6/mL) with the recombinant baculovirus stock such that the multiplicity of infection was 0.1. After 72 hours the cells were centrifuged and the cell pellet homogenized in Tris/Sucrose (50 mM: 25%, pH 8.0) containing 1% 3-[(3-cholamidopropyl) dimethylammino]-1-propanesulfonate (CHAPS). The homogenate was centrifuged at 10,000×G for 30 minutes, and the resultant supernatant was stored at −80° C. before being assayed for COX activity.
(§4) c. Fast assay for COX-1 and COX-2 activity
(§5) COX activity was assayed as PGE2 formed/μg protein/time using an ELISA to detect the prostaglandin released. CHAPS-solubilized insect cell membranes containing the appropriate COX enzyme were incubated in a potassium phosphate buffer (0.05 M Potassium phosphate, pH 7.5, 2 μM phenol, 1 μM heme, 300 μM epinephrine) with the addition of 20 μl of 100 μM arachidonic acid (10 μM). Compounds were pre-incubated with the enzyme for 10 minutes at 25° C. prior to the addition of arachidonic acid. Any reaction between the arachidonic acid and the enzyme was stopped after two minutes at 37° C./room temperature by transferring 40 μl of reaction mix into 160 μl ELISA buffer and 25 μM indomethacin. The PGE2 formed was measured by standard ELISA technology (Cayman Chemical).

COX-1 [2] = biological target: COX-1 (UniProt P23219); assay: Fast assay for COX-1 activity (PGE2 ELISA, recombinant enzyme); format: biochemical, human or murine; details: column marked *; footnote not given
Protocol: as §2, §3, §4, §5

COX-1 [3] = biological target: COX-1 (UniProt P23219); assay: Assay for COX-1 activity (PGE2 ELISA, recombinant enzyme); format: biochemical, human or murine; details: without asterisk
Protocol: as §2, §3
(§6) b. Assay for COX-1 and COX-2 activity
(§7) COX activity was assayed as PGE2 formed/μg protein/time using an ELISA to detect the prostaglandin released. CHAPS-solubilized insect cell membranes containing the appropriate COX enzyme were incubated in a potassium phosphate buffer (50 mM, pH 8.0) containing epinephrine, phenol, and heme with the addition of arachidonic acid (10 μM). Compounds were pre-incubated with the enzyme for 10-20 minutes prior to the addition of arachidonic acid. Any reaction between the arachidonic acid and the enzyme was stopped after ten minutes at 37° C./room temperature by transferring 40 μl of reaction mix into 160 μl ELISA buffer and 25 μM indomethacin. The PGE2 formed was measured by standard ELISA technology (Cayman Chemical).

COX-2 [4] = biological target: T1, COX-2; assay: Assay for COX-2 activity (PGE2 ELISA, recombinant enzyme); format: biochemical, human or murine; details: without asterisk
Protocol: as §1, §2, §3, §6, §7

Analgesia (Table I) = format: in vivo
carrageenan foot edema = assay: Rat carrageenan foot pad edema test; format: in vivo; details: oral, male Sprague-Dawley rats, 3 h after carrageenan
Protocol: Rat Carrageenan Foot Pad Edema Test The carrageenan foot edema test was performed with materials, reagents and procedures essentially as described by Winter, et al., (Proc. Soc. Exp. Biol. Med., 111, 544 (1962)). Male Sprague-Dawley rats were selected in each group so that the average body weight was as close as possible. Rats were fasted with free access to water for over sixteen hours prior to the test. The rats were dosed orally (1 mL) with compounds suspended in vehicle containing 0.5% methylcellulose and 0.025% surfactant, or with vehicle alone. One hour later a subplantar injection of 0.1 mL of 1% solution of carrageenan/sterile 0.9% saline was administered and the volume of the injected foot was measured with a displacement plethysmometer connected to a pressure transducer with a digital indicator. Three hours after the injection of the carrageenan, the volume of the foot was again measured. The average foot swelling in a group of drug-treated animals was compared with that of a group of placebo-treated animals and the percentage inhibition of edema was determined (Otterness and Bliven, Laboratory Models for Testing NSAIDs, in Non-steroidal Anti-Inflammatory Drugs, (J. Lombardino, ed. 1985)).

melting point [°C]	IC50 (COX-2 [1]) [nM]	IC50 (COX-1 [2]) [nM]	IC50 (COX-1 [3]) [nM]	IC50 (COX-2 [4]) [nM]	SMILES	ANALGESIA % Inhibition @ 30 mg/kg body weight (Analgesia (Table I)) [%]	RAT PAW EDEMA % Inhibition @ 30 mg/kg body weight (carrageenan foot edema) [%]
165 to 170.2	–	–	–	–	O=C(O)[C@@H]1Cc2cc(Cl)cc(Cl)c2S[C@@H]1C(F)(F)F (racemic) [Example 1, rel-(2R, 3S)-6,8-dichloro-3,4-dihydro-2-(trifluoromethyl)-2H-1-benzothiopyran-3-carbolic acid]	–	–
185.7 to 188.9	2300	8700	22000	2000	O=C(O)[C@@H]1Cc2c(Cl)ccc(Cl)c2O[C@@H]1C(F)(F)F (racemic) [Example 8, rel-(2R,3S)-5,8-dichloro-3,4-dihydro-2-(trifluoromethyl)-2H-1-benzopyran-3-carboxylic acid]	–	–
169 to 170.4	4800	> 100000	> 100000	18000	N#Cc1ccc2c(c1)C[C@@H](C(=O)O)[C@@H](C(F)(F)F)O2 (racemic) [Example 10, rel-(2R,3S)-6-cyano-3,4-dihydro-2-(trifluoromethyl)-2H-1-benzopyran-3-carboxylic acid]	–	–
120.1 to 120.8	600	65000	> 100000	400	O=C(O)[C@@H]1Cc2cc(OC(F)(F)F)ccc2O[C@@H]1C(F)(F)F (racemic) [Example 11, rel-(2R,3S)-3,4-dihydro-6-trifluoromethoxy-2-(trifluoromethyl)-2H-1-benzopyran-3-carboxylic acid]	–	–
–	600	600	600	300	O=C(O)[C@@H]1Cc2cc(Cl)cc(Cl)c2S[C@@H]1C(F)(F)F (relative stereo) [Example 1, rel-(2R, 3S)-6,8-dichloro-3,4-dihydro-2-(trifluoromethyl)-2H-1-benzothiopyran-3-carbolic acid]	–	–

The remaining lines, values behind:

SMILES	melting point [°C]	IC50 (COX-2 [1]) [nM]	IC50 (COX-1 [2]) [nM]	IC50 (COX-1 [3]) [nM]	IC50 (COX-2 [4]) [nM]	ANALGESIA % Inhibition @ 30 mg/kg body weight (Analgesia (Table I)) [%]	RAT PAW EDEMA % Inhibition @ 30 mg/kg body weight (carrageenan foot edema) [%]
O=C(O)[C@@H]1Cc2c(ccc(Cl)c2Cl)O[C@@H]1C(F)(F)F (racemic) [Example 3, rel-(2R, 3S)-5,6-dichloro-3,4-dihydro-2-(trifluoromethyl)-2H-1-benzopyran-3-carboxylic acid]	173 to 174.4	200	5700	> 100000	200	–	–
O=C(O)[C@@H]1Cc2c(cc(Cl)c(Cl)c2Cl)O[C@@H]1C(F)(F)F (racemic) [Example 5, rel-(2R,3S)-3,4-dihydro-5,6,7-trichloro-2-(trifluoromethyl)-2H-1-benzopyran-3-carboxylic acid]	207.3 to 208.5	400	> 100000	> 100000	400	–	–
O=C(O)[C@@H]1Cc2cc(Cl)c(Cl)c(Cl)c2O[C@@H]1C(F)(F)F (racemic) [Example 7, rel-(2R, 3S)-3,4-dihydro-6,7,8-trichloro-2-(trifluoromethyl)-2H-1-benzopyran-3-carboxylic acid]	205.2 to 208.1	600	54000	> 100000	700	–	–
O=C(O)[C@@H]1Cc2cc(Cl)cc(Cl)c2O[C@@H]1C(F)(F)F [Example 2, (2S,3R)-6,8-dichloro-3,4-dihydro-2-(trifluoromethyl)-2H-1-benzopyran-3-carboxylic acid]	100.3 to 101.1	300	1000	2800	200	56	52
CC(C)(C)c1cc2c(cc1Cl)C[C@@H](C(=O)O)[C@@H](C(F)(F)F)O2 [Example 4, (2S,3R)-6-chloro-3,4-dihydro-7-(1,1-dimethylethyl)-2-(trifluoromethyl)-2H-1-benzopyran-3-carboxylic acid]	115.8 to 120.9	1600	1300	12000	> 100000	–	–
O=C(O)[C@@H]1Cc2cc(Cl)ccc2N[C@@H]1C(F)(F)F [Example 6, (2S,3R)-6-Chloro-1,2,3,4-tetrahydro-2-(trifluoromethyl)-3-quinolinecarboxylic acid]	154.4 to 154.5	2600	> 100000	> 100000	25000	–	–
O=C(O)[C@@H]1Cc2cc(Cl)ccc2O[C@@H]1C(F)(F)F [Example 9, (2S,3R)-6-chloro-3,4-dihydro-2-(trifluoromethyl)-2H-1-benzopyran-3-carboxylic acid]	118.1 to 119.2	500	> 100000	> 100000	29000	–	–
